Patent publication US20250162989A1, “USP30 INHIBITORS AND USES THEREOF” (Vincere Biosciences, Inc., priority 2021, published 2025)

biological target: recombinant USP30 (amino acids 57-517 of the human sequence) (Homo sapiens (Human), UniProt Q70CQ3); test: In vitro USP30 biochemical assay (Ubiquitin-Rhodamine substrate); details: 1.5 nM recombinant USP30, 25 nM Ubiquitin-Rhodamine, fluorescence
Description: In vitro biochemical assay to establish the potency of compounds for USP30 inhibition: a 384-well plate assay using a fluorophore tagged substrate of USP30 was used for in vitro screening of compounds. Each compound was tested at
10 different concentrations (0.5 to 10,000 nM) in duplicate wells. […] Data were analyzed using Graph Pad Prism software with a four-parameter (floating slope) fit to log concentration data to determine IC50s.

Chain of recombinant USP30 (amino acids 57-517 of the human sequence) (Q70CQ3 57-517): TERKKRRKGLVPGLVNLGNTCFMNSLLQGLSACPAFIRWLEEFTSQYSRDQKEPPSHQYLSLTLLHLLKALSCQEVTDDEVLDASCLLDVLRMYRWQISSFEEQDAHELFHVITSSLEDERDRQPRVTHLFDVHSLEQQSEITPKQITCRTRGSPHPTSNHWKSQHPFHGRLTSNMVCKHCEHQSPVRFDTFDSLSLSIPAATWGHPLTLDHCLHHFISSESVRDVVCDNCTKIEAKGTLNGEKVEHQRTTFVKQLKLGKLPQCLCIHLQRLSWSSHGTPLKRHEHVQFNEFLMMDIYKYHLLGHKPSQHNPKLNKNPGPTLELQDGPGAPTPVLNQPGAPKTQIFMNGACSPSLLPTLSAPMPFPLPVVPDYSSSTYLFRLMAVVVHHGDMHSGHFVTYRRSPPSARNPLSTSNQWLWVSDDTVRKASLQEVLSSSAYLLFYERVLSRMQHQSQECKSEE

Compared with `CC(C)(C)NS(=O)(=O)c1ccc(NC(=O)[C@H](CC2COC2)NC(=O)c2ccc(F)cc2)cc1` [Compound I-38, (S)—N-(1-((4-(N-(tert-butyl)sulfamoyl)phenyl)amino)-3-(oxetan-3-yl)-1-oxopropan-2-yl)-4-fluorobenzamide], `COCC[C@H](NC(=O)c1ccc(F)cc1)C(=O)Nc1ccc(S(=O)(=O)NC2COC2)cc1` [Compound I-28] is higher in IC50: 0.05 to 1 µM for the first, 1 to 10 µM for the second.

`CN1CCC(NS(=O)(=O)c2ccc(NC(=O)[C@H](CC3CCOCC3)NC(=O)c3ccc(F)cc3)cn2)CC1` [Compound I-98] and `COc1cc(NC(=O)[C@H](CC2CCOCC2)NC(=O)c2ccc(F)cc2)cnc1S(=O)(=O)NC1CCN(C)CC1` [Compound I-83] fall in the same range of IC50: 1 to 10 µM for the first, 1 to 10 µM for the second.

`COc1cc(NC(=O)[C@H](CC2CCNCC2)NC(=O)c2ccc(F)cc2)ccc1S(=O)(=O)NC1CCOCC1` [Compound I-135] and `COc1cc(NC(=O)[C@H](CC2CCOCC2)NC(=O)c2ccc(F)cc2)ccc1S(=O)(=O)NC1CCOCC1` [Compound I-134] fall in the same range of IC50: 0.05 to 1 µM for the first, 0.05 to 1 µM for the second.

First: CC(C)(CF)NS(=O)(=O)c1ccc(NC(=O)[C@H](Cc2ccccn2)NC(=O)c2ccc(F)cc2)cc1 [Compound I-213]
Second: COC[C@H](NC(=O)c1ccc(F)cc1)C(=O)Nc1ccc(S(=O)(=O)NC(C)(C)CO)cc1 [Compound I-32]
The IC50 of the first is lower: 0.05 to 1 µM for the first, 1 to 10 µM for the second. The first is the more potent here.

First: CC(C)(C)NS(=O)(=O)c1ccc(NC(=O)[C@H](Cc2ccccc2)NC(=O)c2ccc3nn[nH]c3c2)cc1 [Compound I-189]
Second: CC(C)(C)NS(=O)(=O)c1ccc(NC(=O)[C@H](Cc2ccccc2)NC(=O)c2cc[nH]n2)cc1 [Compound I-178]
The IC50 of the first is lower: 0.05 to 1 µM for the first, 1 to 10 µM for the second.

`COc1cc(NC(=O)[C@H](CC(C)C)NC(=O)c2ccc(F)cc2)cnc1S(=O)(=O)NC(C)(C)C` [Compound I-15] and `COc1cc(NC(=O)[C@H](CC(C)C)NC(=O)c2ccc(F)cc2)ccc1S(=O)(=O)NC(C)(C)CO` [Compound I-14] fall in the same range of IC50: 0.05 to 1 µM for the first, 0.05 to 1 µM for the second.

`CO[C@@H]1C[C@@H](C(=O)Nc2ccc(S(=O)(=O)NC(C)(C)C)cc2)N(C(=O)c2ccc(F)cc2)C1` [Compound I-267] and `CC(=O)O[C@H]1C[C@@H](C(=O)Nc2ccc(S(=O)(=O)NC(C)(C)C)cc2)N(C(=O)c2ccc(F)cc2)C1` [Compound I-285] fall in the same range of IC50: 1 to 10 µM for the first, 1 to 10 µM for the second.

`Cn1nccc1CNS(=O)(=O)c1ccc(NC(=O)[C@H](CC2CCNCC2)NC(=O)c2ccc(F)cc2)cc1` [Compound I-224] and `CCN1CCC(C[C@H](NC(=O)c2ccc(F)cc2)C(=O)Nc2ccc(S(=O)(=O)NC(C)(C)CO)cc2)CC1` [Compound I-45] fall in the same range of IC50: 0.05 to 1 µM for the first, 0.05 to 1 µM for the second.

`CN1CCC(C[C@H](NC(=O)c2ccc(F)cc2)[C@@H](O)CNc2ccc(S(=O)(=O)NC(C)(C)C)cc2)CC1` [Compound I-234] and `CC(C)(CO)NS(=O)(=O)c1ccc(NC(=O)[C@@H](NC(=O)c2ccc(F)cc2)C2CC2)cc1` [Compound I-52] fall in the same range of IC50: 1 to 10 µM for the first, 1 to 10 µM for the second.

First: N#CN1CC[C@H](NC(=O)[C@H](Cc2ccccc2)NC(=O)c2ccc(F)cc2)C1 [Compound I-123]
Second: N#CN1CC(NC(=O)[C@H](Cc2ccccc2)NC(=O)c2ccc(F)cc2)C1 [Compound I-241]
The IC50 of the first is higher: 1 to 10 µM for the first, 0.05 to 1 µM for the second. The second is the more potent here.

`O=C(N[C@@H](Cc1ccccc1)C(=O)Nc1ccc(S(=O)(=O)NC23CC(C2)C3)c(O)c1)c1ccc(F)cc1` [Compound I-64] and `O=C(N[C@@H](Cc1ccccc1)C(=O)Nc1ccc(S(=O)(=O)NCc2cnccn2)cc1)c1ccc(F)cc1` [Compound I-223] fall in the same range of IC50: 0.05 to 1 µM for the first, 0.05 to 1 µM for the second.

`CC(C)(C)NC(=O)N1CCC(NC(=O)[C@H](Cc2ccccc2)NC(=O)c2ccc(F)cc2)CC1` [Compound I-57, (S)—N-(tert-butyl)-4-(2-(4-fluorobenzamido)-3-phenylpropanamido)piperidine-1-carboxamide] and `CC(C)(C)NS(=O)(=O)c1ccc(NC(=O)[C@H](Cc2ccccc2)NC(=O)N2CCOCC2)cc1` [Compound I-184] fall in the same range of IC50: 1 to 10 µM for the first, 1 to 10 µM for the second.

First: CC(C)C[C@H](NC(=O)N1CCOCC1)C(=O)Nc1cccc2c(S(=O)(=O)NC(C)(C)C)cccc12 [Compound I-216]
Second: CC(C)(C)NS(=O)(=O)c1cccc2c(NC(=O)[C@H](Cc3ccccc3)NC(=O)N3CCOCC3)cccc12 [Compound I-195]
The IC50 of the first is higher: 1 to 10 µM for the first, 0.05 to 1 µM for the second. The second is the more potent here.

Compared with `COc1cc(NC(=O)[C@@H]2C[C@@H](C3CCCCC3)CN2C(=O)c2ccc(F)cc2)ccc1S(=O)(=O)NC(C)(C)CO` [Compound I-259], `CC(C)(CO)NS(=O)(=O)c1ccc(NC(=O)[C@@H]2C[C@@H](c3ccccc3)CN2C(=O)c2ccc(F)cc2)cc1` [Compound I-262] is higher in IC50: 0.05 to 1 µM for the first, 1 to 10 µM for the second.

`CC(C)(C)NS(=O)(=O)c1ccc(NC(=O)[C@@H]2C[C@@H](c3ccccc3)CN2C(=O)c2ccc(F)cc2)cc1` [Compound I-49, (2S,4S)—N-(4-(N-(tert-butyl)sulfamoyl)phenyl)-1-(4-fluorobenzoyl)-4-phenylpyrrolidine-2-carboxamide] and `COc1cc(NC(=O)[C@@H]2C[C@@H](c3ccccc3)CN2C(=O)c2ccc(F)cc2)ccc1S(=O)(=O)NC1COC1` [Compound I-265] fall in the same range of IC50: 0.05 to 1 µM for the first, 0.05 to 1 µM for the second.

`CC(C)(CO)NS(=O)(=O)c1ccc(NC(=O)[C@H](CC2CCOCC2)NC(=O)c2ccc(F)cc2)cn1` [Compound I-74] and `COc1cc(NC(=O)[C@H](CC2CCOCC2)NC(=O)c2ccc(F)cc2)cnc1S(=O)(=O)NC1CCC1` [Compound I-81] fall in the same range of IC50: 0.05 to 1 µM for the first, 0.05 to 1 µM for the second.

Compared with `COC[C@H](NC(=O)c1ccc(F)cc1)C(=O)Nc1ccc(S(=O)(=O)NC(C)(C)CN2CCOCC2)cc1` [Compound I-33], `COCC[C@H](NC(=O)c1ccc(F)cc1)C(=O)Nc1ccc(S(=O)(=O)NC(C)(C)CO)cc1` [Compound I-26] is lower in IC50: 1 to 10 µM for the first, 0.05 to 1 µM for the second. The second is the more potent here.

For `COCCC(C)(C)NS(=O)(=O)c1ccc(NC(=O)[C@H](CC(C)C)NC(=O)c2ccc(F)cc2)cc1` [Compound I-18], the IC50 was 0.05 to 1 µM.

same assay, conditions: […] recombinant USP30, 25 nM Ubiquitin-Rhodamine, fluorescence

`CC(C)C[C@H](NC(=O)c1ccc(F)cc1)C(=O)NC1CN(C(=O)OCc2ccccc2)C1` [Compound I-248] and `CC(=O)N1CCC(NC(=O)[C@H](Cc2ccccc2)NC(=O)c2ccc(F)cc2)CC1` [Compound I-114] cannot be ordered by IC50: > 10 µM for the first, > 10 µM for the second.

`O=C(N[C@@H](Cc1ccccc1)C(=O)N[C@@H]1CCN(S(=O)(=O)NC2COC2)C1)c1ccc(F)cc1` [Compound I-169] and `CC(C)(C)NS(=O)(=O)N1CC[C@@H](NC(=O)[C@H](Cc2ccccc2)NC(=O)c2ccc(F)cc2)C1` [Compound I-162] cannot be ordered by IC50: > 10 µM for the first, > 10 µM for the second.

`CC(C)(CO)NS(=O)(=O)c1ccc(NC(=O)[C@@H]2C[C@H](O)CN2C(=O)c2ccc(F)cc2)cc1` [Compound I-280] and `CO[C@@H]1C[C@@H](C(=O)Nc2ccc(S(=O)(=O)NC(C)(C)CO)cc2)N(C(=O)c2ccc(F)cc2)C1` [Compound I-268] cannot be ordered by IC50: > 10 µM for the first, > 10 µM for the second.

`O=C(N[C@@H](Cc1ccccc1)C(=O)N[C@@H]1CCNC1)c1ccc(F)cc1` [Compound I-146] and `N#CN1CCC(NC(=O)[C@H](Cc2ccccc2)NC(=O)c2ccc(F)cc2)CC1` [Compound I-124] cannot be ordered by IC50: > 10 µM for the first, > 10 µM for the second.

`O=C(Nc1ccc(S(=O)(=O)N[C@@H]2CCOC2)cc1)[C@@H]1C[C@H](O)CN1C(=O)c1ccc(F)cc1` [Compound I-282] and `O=C(Nc1ccc(S(=O)(=O)NC2COC2)cc1)[C@@H]1C[C@@H](O)CN1C(=O)c1ccc(F)cc1` [Compound I-276] cannot be ordered by IC50: > 10 µM for the first, > 10 µM for the second.

`CC(C)(C)NS(=O)(=O)c1ccc(NC(=O)C2CCCCN2C(=O)c2ccc(F)cc2)cc1` (stereo not shown) [Compound I-245] and `CC(C)(C)NS(=O)(=O)c1ccc(NC(=O)[C@@H](CC2COC2)NC(=O)c2ccc(F)cc2)cc1` [Compound I-39, (R)—N-(1-((4-(N-(tert-butyl)sulfamoyl)phenyl)amino)-3-(oxetan-3-yl)-1-oxopropan-2-yl)-4-fluorobenzamide] cannot be ordered by IC50: > 10 µM for the first, > 10 µM for the second.

`CC(C)(C)NS(=O)(=O)c1ccc(NC(=O)[C@H](CC2CCOCC2)NC(=O)c2ccc(F)cc2)cn1` [Compound I-4] and `CC(C)N1CCC(C[C@H](NC(=O)c2ccc(F)cc2)C(=O)Nc2ccc(S(=O)(=O)NC(C)(C)C)cc2)CC1` [Compound I-287] cannot be ordered by IC50: < 0.05 µM for the first, < 0.05 µM for the second.

`CC(C)(C)NS(=O)(=O)c1ccc(NC(=O)[C@H](Cc2ccccc2)NC(=O)c2ncccn2)cc1` [Compound I-191] and `CC(C)(C)NS(=O)(=O)c1ccc(NC(=O)[C@H](Cc2ccccc2)NC(=O)c2c[nH]cn2)cc1` [Compound I-176] cannot be ordered by IC50: > 10 µM for the first, > 10 µM for the second.

Going from `CC(C)(C)NS(=O)(=O)c1cccc2c(NC[C@H](O)[C@H](Cc3ccccc3)NC(=O)c3ccc(F)cc3)cccc12` [Compound I-211] to `CC(C)(C)NS(=O)(=O)c1ccc(NC(=O)[C@H](Cc2ccccc2)NC(=O)c2ccc(F)cc2)cc1O` [Compound I-63], the IC50 falls from > 10 µM to < 0.05 µM. The second is the more potent here.

`CC1(NC(=O)[C@H](Cc2ccccc2)NC(=O)c2ccc(F)cc2)CN(C(=O)OCc2ccccc2)C1` [Compound I-252] and `CNC(=O)N1CCC(NC(=O)[C@H](Cc2ccccc2)NC(=O)c2ccc(F)cc2)CC1` [Compound I-119] cannot be ordered by IC50: > 10 µM for the first, > 10 µM for the second.

`CO[C@H]1C[C@@H](C(=O)Nc2ccc(S(=O)(=O)NC3COC3)cc2)N(C(=O)c2ccc(F)cc2)C1` [Compound I-289] and `CO[C@@H]1C[C@@H](C(=O)Nc2ccc(S(=O)(=O)NC3COC3)cc2)N(C(=O)c2ccc(F)cc2)C1` [Compound I-278] cannot be ordered by IC50: > 10 µM for the first, > 10 µM for the second.

`CC(=O)O[C@H]1C[C@@H](C(=O)Nc2ccc(S(=O)(=O)N[C@@H]3CCOC3)cc2)N(C(=O)c2ccc(F)cc2)C1` [Compound I-284] and `N#CCN1CC[C@@H](NC(=O)[C@H](Cc2ccccc2)NC(=O)c2ccc(F)cc2)C1` [Compound I-154] cannot be ordered by IC50: > 10 µM for the first, > 10 µM for the second.

Going from `CN1CCN(C(=O)N[C@@H](Cc2ccccc2)C(=O)Nc2cccc3c(S(=O)(=O)NC(C)(C)C)cccc23)CC1` [Compound I-198] to `CC(C)C[C@H](NC(=O)c1ccccc1)C(=O)NC1CN(C#N)C1` [Compound I-249], the IC50 falls from > 10 µM to < 0.05 µM.
